Literature values as cited in patent US6996473B2, “Method for screening and producing compound libraries” (Lion Bioscience AG, priority 1998, dated 2006).
Counter-ions that a name gives are not always drawn. Like-named read-outs stand apart in the source and are kept apart here.

How the values were obtained:
rabbit intestinal tissue = conditions: intestinal transport mechanism represented by the standard
[1] = Stomach

Transport mechanism (rabbit intestinal tissue) | Cmax (Clinical 1505a) [ng/mL] | Tmax (Clinical 1505a) [h] | Cmax (Clinical 1505b) [ng/mL] | Tmax (Clinical 1505b) [h] | bioavailability of fasted patients in clinical trials (fasted patients, oral) | Solubility [1] [mg/mL] | SMILES
Carrier-mediated Influx | – | – | – | – | – | – | O=C[C@H](O)[C@@H](O)[C@H](O)[C@H](O)CO [D-glucose]
– | 550 | 1.43 | 590 | 1.43 | 3-20% | 31 | Nc1nc(O)c2ncn(COC(CO)CO)c2n1 [Gancyclovir, 9-(1,3-dihydroxy-2-propoxymethyl) guanine, monosodium salt]
Passive Paracellular | – | – | – | – | – | – | OC[C@@H](O)[C@@H](O)[C@H](O)[C@H](O)CO [mannitol]
